Molecules are shown by their SMILES.

Experiment [1] deals with Porcine vascular endothelial cells (PAE). Nature of the experiment: NOS enzyme activity in vascular endothelial cells (PAE), NOS kit. The class given is cell-based. The settings on record: LNNA 10^-5 M. Here is the method: (§1) Porcine vascular endothelial cells (PAE) were provided by the Institute of Urology, Peking University. The determination of the effect of icariside II on NOS activity in the endothelial cell is conducted using NOS kit (Cayman Chemical company, Ann Arbor, Mich., USA). Vascular endothelial cells (PAE) were treated with different concentrations of icariside II (0, 10^−9, 10^−8, 10^−7, 10^−6, 10^−5 and 10^−4 M) (sildenafil as the control group). 180 μl lysate was added into each culture well. 20 μl supernatant was used for protein concentration assay with BCA protein kit. And, 100 μl supernatant was analyzed for NOS activity with NOS kit (Cayman Chemical company, Ann Arbor, Mich., USA). NOS activity (units/mg)=[(valueNos-measure−valueNOS-blank)÷(38.3×10^6)]×[(2.15+supernatant volume)÷(15×supernatant volume)]÷[protein concentration of each Petri dish].

Experiment [2] concerns PAE-EGFR cells. Put plainly: NOS enzyme activity in EGFR expressing PAE-EGFR cells, NOS kit. The class given is cell-based, porcine. The settings on record: PAE-EGFR cells; LNNA 10^-5 M. Here is the method: as §1, with “dish]. 1) The EGFR gene was subcloned into pGFP plasmid to construct pGFP-EGFR expression vector. With Liposome transfection reagent (Qigen), pGFP-EGFR was transfected into PAE cells. After the selection with 1800 μg/ml of G418, a single cell clone was selected. Western blot confirms the stable expression of EGFR in the PAE-EGFR cells.” for “dish].”

The test system of experiment [3] is Primary human corpus cavernosum smooth muscle cells (CCSMCs). Put plainly: NOS activity in corpus cavernosum smooth muscle cells. The class given is cell-based. To be noted: LNNA 4×10^−4 M. Here is the method: Primary human corpus cavernosum smooth muscle cells ([…]) were provided by the Andrology Center of Peking University. The […] of the third passage were cultured in six well plates for two days. Then the cells were treated with icariside II or the sildenafil at a concentration of 0, 10^-9, 10^-8, 10^-7, 10^-6, 10^-5 M; or treated with icariside II (0, 10^-9, 10^-8, 10^-7, 10^-6, 10^-5 M) in the presence or absence of LNNA (4×10^-4 M). The control group was cultured with DMEM only. After 24 hours, the cells were washed three times and 180 μl lysis buffer was added into each well; 60 μl cell suspension was taken for protein concentration assay with BCA protein kit; 100 μl cell suspension was taken for NOS activity test. NOS activity (units/mg protein)=[(valueNOS-measure-valueNOS-blank)÷(38.3×10^6)]×[(2.15+supernatant volume)÷(15×S supernatant volume)]÷[protein concentration in each well].

In the case of `NC(=NCCC[C@H](N)C(=O)O)N[N+](=O)[O-]` [LNNA, reference compound], in experiment [1] (p<0.05), the “effect on the regulatory effect of icariside II on endothelial cell NOS activity” value is on record as “significantly inhibited”. Also, the “NOS baseline activity after treatment with NOS inhibitor” value in experiment [1] (PAE cells) was 2.74±0.269 u/mg; in experiment [2], 3.27±0.319 u/mg. In experiment [3], the “NOS activity after LNNA treatment” value was found to be 0.3 units/mg protein.
